Laboratory results taken from EP2518054A1, “AMIDE COMPOUND” (Takeda Pharmaceutical Company Limited, priority 2009, dated 2011).

Target: T1, human GPR52 (Homo sapiens, UniProt Q9Y2T5)
T1 construct: expressed in transfected cells; host or cells: CHO(dhfr-) cells
Assay: Increase of intracellular cAMP concentration in human GPR52-expressing CHO cell (AlphaScreen cAMP assay)
Assay type: cell-based
Settings: CHO, 1µM test compound; 100% = cAMP with 1 µM Reference Example 79, 0% = DMSO; human GPR52-expressing CHO(dhfr-) cells, 37°C, 30 min; read-out: GPR52 agonist activity (%)
Protocol: Increase of intracellular cAMP concentration in human GPR52-expressing CHO cell
Using OptiPlate-384 (PerkinElmer Inc.), 1×10^4 human GPR52-expressing CHO(dhfr-) cells were incubated together with various concentration(10^-5µM - 10µm) of a test compound in an assay buffer (30 µL, HBSS (containing Ca^2+ and Mg^2+), 0.5% BSA, 100 µM IBMX, 100 µM Ro20-1724, 5 mM HEPES (pH 7.55)) at 37°C for 30 min. Thereafter, according to the protocol of AlphaScreen CAMP Assay Kit (PerkinElmer Inc.), the intracellular cAMP concentration was measured by EnVision (PerkinElmer Inc.). The GPR52 agonist activity was calculated, assuming the intracellular cAMP concentration in the presence of […] N-(2-hydroxyethyl)-3-[2-[3-(trifluoromethyl)benzyl]-1-benzofuran-4-yl]benzamide (Reference Example 79) to be 100% and assuming the intracellular cAMP concentration when DMSO was added instead of the test compound to be 0%.

T1 sequence (Q9Y2T5 whole entry): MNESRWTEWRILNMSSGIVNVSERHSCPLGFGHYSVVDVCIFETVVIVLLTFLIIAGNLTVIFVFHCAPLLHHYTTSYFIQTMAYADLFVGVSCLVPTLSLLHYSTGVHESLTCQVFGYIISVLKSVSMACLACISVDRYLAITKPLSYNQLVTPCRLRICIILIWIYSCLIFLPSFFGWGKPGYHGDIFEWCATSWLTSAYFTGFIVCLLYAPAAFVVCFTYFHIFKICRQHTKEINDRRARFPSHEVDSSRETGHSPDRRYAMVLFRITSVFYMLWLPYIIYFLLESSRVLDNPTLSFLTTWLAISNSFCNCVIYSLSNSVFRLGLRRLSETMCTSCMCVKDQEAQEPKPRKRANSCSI

activity at 1 µM [%]	Compound
91	COCc1c(C(=O)NCCO)c(C)nn1-c1cccc2cc(Cc3cccc(C(F)(F)F)c3)sc12 [Example 70, N-(2-hydroxyethyl)-5-(methoxymethyl)-3-methyl-1-[2-[3-(trifluoromethyl)benzyl]-1-benzothiophen-7-yl]-1H-pyrazole-4-carboxamide]
99	Cc1nn(-c2ccc(F)c3cc(Cc4cc(F)cc(Cl)c4)sc23)c(C)c1C(=O)NCCO [Example 60, 1-[2-(3-chloro-5-fluorobenzyl)-4-fluoro-1-benzothiophen-7-yl]-N-(2-hydroxyethyl)-3,5-dimethyl-1H-pyrazole-4-carboxamide]
93	Cc1nn(-c2cccc3sc(Cc4cccc(C(F)(F)F)c4)cc23)c(C)c1C(N)=O [Example 104, 3,5-dimethyl-1-[2-[3-(trifluoromethyl)benzyl]-1-benzothiophen-4-yl]-1H-pyrazole-4-carboxamide]
95	Cc1cccc(Cc2cc3cccc(-n4nc(C)c(C(N)=O)c4C)c3s2)c1 [Example 95, 3,5-dimethyl-1-[2-(3-methylbenzyl)-1-benzothiophen-7-yl]-1H-pyrazole-4-carboxamide]
98	COc1cc(Cc2cc3cccc(-n4nc(C)c(C(N)=O)c4C)c3s2)ccc1F [Example 98, 1-[2-(4-fluoro-3-methoxybenzyl)-1-benzothiophen-7-yl]-3,5-dimethyl-1H-pyrazole-4-carboxamide]
94	Cc1nn(-c2cccc3cc(Cc4cccc(C(F)(F)F)c4)sc23)c(CO)c1C(=O)NCC(N)=O [Example 63, N-(2-amino-2-oxoethyl)-5-(hydroxymethyl)-3-methyl-1-[2-[3-(trifluoromethyl)benzyl]-1-benzothiophen-7-yl]-1H-pyrazole-4-carboxamide]
98	Cc1nn(-c2cccc3oc(Cc4cccc(C(F)(F)F)c4)cc23)c(C)c1C(=O)NCC(N)=O [Example 74, N-(2-amino-2-oxoethyl)-3,5-dimethyl-1-[2-[3-(trifluoromethyl)benzyl]-1-benzofuran-4-yl]-1H-pyrazole-4-carboxamide]
83	O=C(NCCO)c1sc(-c2cccc3nn(Cc4cccc(C(F)(F)F)c4)cc23)nc1C(F)(F)F [Example 88, N-(2-hydroxyethyl)-4-(trifluoromethyl)-2-[2-[3-(trifluoromethyl)benzyl]-2H-indazol-4-yl]-1,3-thiazole-5-carboxamide]
92	O=C(NCCO)c1sc(-c2cccc3cc(Cc4cccc(C(F)(F)F)c4)sc23)nc1C(F)(F)F [Example 87, N-(2-hydroxyethyl)-4-(trifluoromethyl)-2-[2-[3-(trifluoromethyl)benzyl]-1-benzothiophen-7-yl]-1,3-thiazole-5-carboxamide]
99	Cc1nn(-c2ccc(F)c3cc(Cc4cc(F)cc(Cl)c4)sc23)c(CO)c1C(N)=O [Example 91, 1-[2-(3-chloro-5-fluorobenzyl)-4-fluoro-1-benzothiophen-7-yl]-5-(hydroxymethyl)-3-methyl-1H-pyrazole-4-carboxamide]
104	Cc1nn(-c2ccc(F)c3cc(Cc4cc(F)cc(Cl)c4)sc23)c(CO)c1C(=O)NCCO [Example 90, 1-[2-(3-chloro-5-fluorobenzyl)-4-fluoro-1-benzothiophen-7-yl]-N-(2-hydroxyethyl)-5-(hydroxymethyl)-3-methyl-1H-pyrazole-4-carboxamide]
94	COc1cc(Cc2cc3cccc(-n4nc(C)c(C(=O)NCCO)c4C)c3s2)ccc1F [Example 97, 1-[2-(4-fluoro-3-methoxybenzyl)-1-benzothiophen-7-yl]-N-(2-hydroxyethyl)-3,5-dimethyl-1H-pyrazole-4-carboxamide]
105	Cc1nn(-c2cccc3nn(Cc4cc(F)cc(Cl)c4)cc23)c(C)c1C(=O)NCCO [Example 82, 1-[2-(3-chloro-5-fluorobenzyl)-2H-indazol-4-yl]-N-(2-hydroxyethyl)-3,5-dimethyl-1H-pyrazole-4-carboxamide]
97	Cc1nn(-c2cccc3sc(Cc4cccc(C(F)(F)F)c4)cc23)c(C)c1C(=O)NCCO [Example 106, N-(2-hydroxyethyl)-3,5-dimethyl-1-[2-[3-(trifluoromethyl)benzyl]-1-benzothiophen-4-yl]-1H-pyrazole-4-carboxamide]
94	Cc1nn(-c2cccc3sc(Cc4cccc(C(F)(F)F)c4)cc23)c(C)c1C(=O)NCC(N)=O [Example 105, N-(2-amino-2-oxoethyl)-3,5-dimethyl-1-[2-[3-(trifluoromethyl)benzyl]-1-benzothiophen-4-yl]-1H-pyrazole-4-carboxamide]
83	Cc1c(C(=O)NCCO)c(CO)nn1-c1cccc2cc(Cc3cccc(C(F)(F)F)c3)sc12 [Example 67, N-(2-hydroxyethyl)-3-(hydroxymethyl)-5-methyl-1-[2-[3-(trifluoromethyl)benzyl]-1-benzothiophen-7-yl]-1H-pyrazole-4-carboxamide]
97	Cc1nn(-c2ccc(F)c3cc(Cc4cccc(C(F)(F)F)c4)sc23)c(C)c1C(=O)NC1CC1 [Example 103, N-cyclopropyl-1-[4-fluoro-2-[3-(trifluoromethyl)benzyl]-1-benzothiophen-7-yl]-3,5-dimethyl-1 H-pyrazole-4-carboxamide]

The remaining lines, values behind:

Compound	activity at 1 µM [%]
Cc1nc(-c2cccc3oc(Cc4cccc(C(F)(F)F)c4)cc23)sc1C(=O)NCCO [Example 46, N-(2-hydroxyethyl)-4-methyl-2-[2-[3-(trifluoromethyl)benzyl]-1-benzofuran-4-yl]-1,3-thiazole-5-carboxamide]	90
Cc1nc(-c2cccc3cc(Cc4cccc(C(F)(F)F)c4)sc23)sc1C(N)=O [Example 36, 4-methyl-2-[2-[3-(trifluoromethyl)benzyl]-1-benzothiophen-7-yl]-1,3-thiazole-5-carboxamide]	96
NC(=O)CNC(=O)c1cn(-c2cccc3cc(Cc4cccc(C(F)(F)F)c4)sc23)nc1C(F)(F)F [Example 21, N-(2-amino-2-oxoethyl)-3-(trifluoromethyl)-1-[2-[3-(trifluoromethyl)benzyl]-1-benzothiophen-7-yl]-1H-pyrazole-4-carboxamide]	94
O=C(NCCO)c1cn(-c2cccc3cc(Cc4cccc(C(F)(F)F)c4)sc23)nc1C(F)(F)F [Example 20, N-(2-hydroxyethyl)-3-(trifluoromethyl)-1-[2-[3-(trifluoromethyl)benzyl]-1-benzothiophen-7-yl]-1H-pyrazole-4-carboxamide]	79
COCCNC(=O)c1c(C)nn(-c2cccc3cc(Cc4cccc(C(F)(F)F)c4)sc23)c1C [Example 51, N-(2-methoxyethyl)-3,5-dimethyl-1-[2-[3-(trifluoromethyl)benzyl]-1-benzothiophen-7-yl]-1H-pyrazole-4-carboxamide]	102
Cc1nc(-c2cccc3cc(Cc4cccc(C(F)(F)F)c4)sc23)oc1C(=O)NCC(N)=O [Example 11, N-(2-amino-2-oxoethyl)-4-methyl-2-[2-[3-(trifluoromethyl)benzyl]-1-benzothiophen-7-yl]-1,3-oxazole-5-carboxamide]	70
COCCNC(=O)c1cnn(-c2cccc3cc(Cc4cccc(C(F)(F)F)c4)sc23)c1C [Example 13, N-(2-methoxyethyl)-5-methyl-1-[2-[3-(trifluoromethyl)benzyl]-1-benzothiophen-7-yl]-1H-pyrazole-4-carboxamide]	79
Cc1nn(-c2cccc3cc(Cc4cccc(C(F)(F)F)c4)sc23)c(C)c1C(N)=O [Example 54, 3,5-dimethyl-1-[2-[3-(trifluoromethyl)benzyl]-1-benzothiophen-7-yl]-1H-pyrazole-4-carboxamide]	101
Cc1nn(-c2cccc3cc(Cc4cccc(C(F)(F)F)c4)sc23)cc1C(=O)NCC(N)=O [Example 16, N-(2-amino-2-oxoethyl)-3-methyl-1-[2-[3-(trifluoromethyl)benzyl]-1-benzothiophen-7-yl]-1H-pyrazole-4-carboxamide]	94
Cc1nc(-c2cccc3cc(Cc4cccc(C(F)(F)F)c4)sc23)sc1C(=O)NCCO [Example 39, N-(2-hydroxyethyl)-4-methyl-2-[2-[3-(trifluoromethyl)benzyl]-1-benzothiophen-7-yl]-1,3-thiazole-5-carboxamide]	93
COCCNC(=O)c1sc(-c2cccc3cc(Cc4cccc(C(F)(F)F)c4)sc23)nc1C [Example 40, N-(2-methoxyethyl)-4-methyl-2-[2-[3-(trifluoromethyl)benzyl]-1-benzothiophen-7-yl]-1,3-thiazole-5-carboxamide]	90
Cc1nc(-c2cccc3cc(Cc4cccc(C(F)(F)F)c4)sc23)n(C)c1C(=O)NCC(N)=O [Example 47, N-(2-amino-2-oxoethyl)-1,4-dimethyl-2-[2-[3-(trifluoromethyl)benzyl]-1-benzothiophen-7-yl]-1H-imidazole-5-carboxamide]	93
Cc1cc(C(=O)NCCO)n(-c2cccc3cc(Cc4cccc(C(F)(F)F)c4)sc23)n1 [Example 33, N-(2-hydroxyethyl)-3-methyl-1-[2-[3-(trifluoromethyl)benzyl]-1-benzothiophen-7-yl]-1H-pyrazole-5-carboxamide]	79

Same assay, conditions: concentration of the test compound at which it shows 50% activity; human GPR52-expressing CHO(dhfr-) cells; read-out: GPR52 agonist activity EC50

EC50 [nM]	Compound
290	Cc1nc(-c2cccc3cc(Cc4cccc(C(F)(F)F)c4)sc23)oc1C(=O)NCC(N)=O [Example 11, N-(2-amino-2-oxoethyl)-4-methyl-2-[2-[3-(trifluoromethyl)benzyl]-1-benzothiophen-7-yl]-1,3-oxazole-5-carboxamide]
14	Cc1nn(-c2ccc(F)c3cc(Cc4cc(F)cc(Cl)c4)sc23)c(CO)c1C(=O)NCCO [Example 90, 1-[2-(3-chloro-5-fluorobenzyl)-4-fluoro-1-benzothiophen-7-yl]-N-(2-hydroxyethyl)-5-(hydroxymethyl)-3-methyl-1H-pyrazole-4-carboxamide]
